Assays:
human thrombin = target: T1, human thrombin (Homo sapiens, UniProt P00734); assay: Determination of the inhibitory constants of purified macrocycles (thrombin, fluorogenic substrate Z-Gly-Gly-Arg-AMC); format: biochemical; details: for Ki: purified macrocycle, 2 nM thrombin, 50 μM Z-Gly-Gly-Arg-AMC, Ki from IC50 by Cheng-Prusoff
T1 construct: consists of two polypeptide chains of 259 (H-chain) and 37 amino acid residues; purchased Molecular Innovations
Protocol: Determination of the inhibitory constants of macrocycles
The IC50s of macrocycles were determined by measuring the residual activity of thrombin at different dilutions of macrocycle using a fluorogenic substrate. The reactions were performed in a volume of 150 µl in 96-well plates. A volume of 50 µl of 2-fold dilutions of macrocycle in assay buffer (10 mM Tris-Cl [pH 7.4], 150 mM NaCl, 10 mM MgCl2, 1 mM CaCl2, 0.1% w/v BSA, 0.01% v/v Triton-X100) were pipetted to the wells. A volume of 50 µl of thrombin (6 nM) in assay buffer was added to each well to reach a final concentration of 2 nM and was incubated for 15 min. A volume of 50 µl of the fluorogenic substrate Z-Gly-Gly-Arg-AMC (150 µM) in assay buffer containing 3% DMSO was added to reach a final substrate concentration of 50 µM and 1% DMSO. Fluorescence intensity was measured for 30 min using an Infinite M200Pro plate reader (Tecan; excitation at 368 nm, emission at 467 nm) with a read every minute.
Sigmoidal curves were fitted to the data using Prism 5 (GraphPad software) and the following dose- […]
wherein x is macrocycle concentration, y is % protease activity, and p is Hill slope. IC50 values were derived […]
The inhibitory constants (Ki) were calculated using the following equation of Cheng and Prusoff: […]
wherein IC50 is the functional strength of the inhibitor, [S]0 is the total substrate concentration, and Km is the Michaelis-Menten constant. The Km for thrombin and the substrate Z-Gly-Gly-Arg-AMC was determined to […]

[1] = One-pot thiol-to-amine (S-to-N) bis-alkylation/conjugate addition/SNAr: Cys thiol and N-terminal secondary benzylamine (peptoid-type) bridged by bis-electrophile linkers 1-6 (8 equiv, 800 uM) after TCEP removal of the S-SO3H group (TCEP 400 uM, excess benzylamine 1.6 mM present); details: the molecule shown is the open-chain precursor, 60 mM aq NH4HCO3 pH 8 with about 5% DMSO, 0.1 mM, 37.0 °C, 3 steps, scale: %
[2] = system: panel of nine human proteases; assay: Determination of target specificity against a panel of trypsin-like serine proteases; format: biochemical; details: panel of nine human proteases structurally and functionally most similar to thrombin
Protocol: (§1) Determination of target specificity
(§2) The specificity was profiled by testing the inhibition of a panel of trypsin-like serine proteases using fluorogenic or chromogenic substrates. Dilutions of macrocycle were prepared ranging from 40 µM to 40 nM for all proteases except for thrombin (1 µM to 1 nM). The following final concentrations of human proteases were used: 2 nM thrombin (Molecular Innovations), 0.6 nM activated protein C (APC, Molecular Innovations), 1.5 nM uPA (Molecular Innovations), 0.25 nM plasma kallikrein (Innovative Research), 1 nM factor XIa (Innovative Research), 7.5 nM tPA (Molecular Innovations), 0.1 nM trypsin (Molecular Innovations), 3 nM factor XIIa (Molecular Innovations), and 2.5 nM plasmin (Molecular Innovations). […]
(§3) A volume of 50 µl of the substrate in assay buffer containing 3% DMSO was added. Fluorescence intensity was measured for 30 min using an Infinite M200Pro plate reader (Tecan; excitation at 368 nm, emission at 467 nm) with a read every minute. For APC protease, absorption was measured at 405 nm with the same plate reader for a period of 30 min with a read every minute. […] The inhibitory constants were calculated as described above. […]
(§4) Coagulation times were determined in human plasma using a STAGO STart4 coagulation analyzer (Diagnostica). […]
(§5) ball stopped moving was recorded as coagulation time. […]

human plasma [3] = assay: Activated partial thromboplastin time (aPTT), intrinsic coagulation pathway, in human plasma; format: biochemical; details: EC2× = concentration for 2-fold increase in coagulation time
Protocol: as §1, §2, §3, §4, §5

human plasma [4] = assay: Prothrombin time (PT), extrinsic coagulation pathway, in human plasma; format: biochemical; details: EC2× = concentration for 2-fold increase in coagulation time
Protocol: as §1, §2, §3, §4, §5

## N=C(N)NCCC[C@@H]1NC(=O)C[C@H]2CCCN2C(=O)CN(Cc2ccccc2CO)Cc2ccccc2CSC[C@@H](C(N)=O)NC1=O [macrocycle 60]
Human thrombin
  Ki: 95 ± 17 nM

## N=C(N)NCCC[C@@H]1NC(=O)C[C@@H]2CCCN2C(=O)CN(Cc2ccco2)Cc2ccccc2CSC[C@@H](C(N)=O)NC1=O [macrocycle 61]
Human thrombin
  Ki: 520 ± 110 nM

## NC(=O)[C@H](Cc1c[nH]c2ccccc12)NC(=O)CNC(=O)[C@H](CSc1ncnc(Cl)n1)NC(=O)CNC(=O)CNCc1ccccc1 [Bn-NH-CH2CO-Gly-Cys(SH)-Gly-Trp-NH2]
[1]; 13-membered ring
  ring closure, conversion by HPLC: 67

## N=C(N)NCCC[C@@H]1NC(=O)C[C@H]2CCCN2C(=O)CN(Cc2ccco2)Cc2ccccc2CSC[C@@H](C(N)=O)NC1=O [macrocycle 57]
[2]
  target selectivity: high target selectivity
Human plasma [3]
  fold better aPTT EC2× than parent 7: 1.4 fold
Human plasma [4]
  fold better PT EC2× than parent 7: 1.9 fold
Human thrombin
  Ki: 10.6 ± 2 nM
Human thrombin; thrombin Ki relative to 7
  fold improvement of Ki over parental macrocycle 7: 5.5 fold

## N=C(N)NCCCC1NC(=O)CC2CCCN2C(=O)CN(Cc2ccccc2CO)Cc2ccccc2CSCC(C(N)=O)NC1=O (centres unmarked) [macrocycle 7]
Human thrombin
  Ki: 59 ± 6 nM

## NC(=O)[C@H](Cc1c[nH]c2ccccc12)NC(=O)CNC(=O)[C@H](CSCc1ccc(CBr)cc1)NC(=O)CNC(=O)CNCc1ccccc1 [Bn-NH-CH2CO-Gly-Cys(SH)-Gly-Trp-NH2]
[1]; 16-membered ring
  ring closure, conversion by HPLC: 18

## NC(=O)[C@H](Cc1c[nH]c2ccccc12)NC(=O)CNC(=O)[C@H](CSCc1ccccc1CBr)NC(=O)CNC(=O)CNCc1ccccc1 [Bn-NH-CH2CO-Gly-Cys(SH)-Gly-Trp-NH2]
[1]; 14-membered ring
  ring closure, conversion by HPLC: 32

## C=CS(=O)(=O)CCSC[C@H](NC(=O)CNC(=O)CNCc1ccccc1)C(=O)NCC(=O)N[C@@H](Cc1c[nH]c2ccccc12)C(N)=O [Bn-NH-CH2CO-Gly-Cys(SH)-Gly-Trp-NH2]
[1]; 15-membered ring
  ring closure, conversion by HPLC: 93

## C=CS(=O)(=O)CS(=O)(=O)CCSC[C@H](NC(=O)CNC(=O)CNCc1ccccc1)C(=O)NCC(=O)N[C@@H](Cc1c[nH]c2ccccc12)C(N)=O [Bn-NH-CH2CO-Gly-Cys(SH)-Gly-Trp-NH2]
[1]; 17-membered ring
  ring closure, conversion by HPLC: 41

## NC(=O)[C@H](Cc1c[nH]c2ccccc12)NC(=O)CNC(=O)[C@H](CSCc1cccc(CBr)n1)NC(=O)CNC(=O)CNCc1ccccc1 [Bn-NH-CH2CO-Gly-Cys(SH)-Gly-Trp-NH2]
[1]; 15-membered ring
  ring closure, conversion by HPLC: 86

— publication PMC8163216, “Macrocycle synthesis strategy based on step-wise “adding and reacting” three components enables screening of large combinatorial libraries” (Chemical Science, 2020)
